Drawing on ChEMBL document CHEMBL5518160, “Progress in the development of TRPV1 small-molecule antagonists: Novel Strategies for pain management” (Eur J Med Chem, 2023), this text covers IC50, Activity and Ki for 15 molecules.

Assay [1] has as its target T1, Transient receptor potential cation channel subfamily V member 1 (Homo sapiens, UniProt Q8NER1). The experiment in a line: Antagonist activity at human TRPV1 expressed in HEK293 cells assessed as inhibition of capsaicin-induced Ca2+ influx by fluorescence based assay. The assay is classed as cell-based.
The species entered for assay [2] is Mus musculus. The experiment in a line: Antipruritic effect in mouse assessed as reduction in histamine-induced itching duration relative to control. Format: functional. The arrangement: scale not given: the % may be the effect or the level left.
The target in assay [3] is T1, Transient receptor potential cation channel subfamily V member 1. Nature of the assay: Binding affinity to human TRPV1 assessed as inhibition constant.
Assay [4] has the same target. The experiment in a line: Antagonist activity at human TRPV1.
For assay [5] the target is unchanged. The experiment in a line: Antagonist activity at human TRPV1 assessed as inhibition of capsaicin-induced increase in intracellular Ca2+ level. Format: cell-based.
Assay [6] has as its target T2, Prostaglandin G/H synthase 2 (Homo sapiens, UniProt P35354).
T2 sequence (P35354 whole entry): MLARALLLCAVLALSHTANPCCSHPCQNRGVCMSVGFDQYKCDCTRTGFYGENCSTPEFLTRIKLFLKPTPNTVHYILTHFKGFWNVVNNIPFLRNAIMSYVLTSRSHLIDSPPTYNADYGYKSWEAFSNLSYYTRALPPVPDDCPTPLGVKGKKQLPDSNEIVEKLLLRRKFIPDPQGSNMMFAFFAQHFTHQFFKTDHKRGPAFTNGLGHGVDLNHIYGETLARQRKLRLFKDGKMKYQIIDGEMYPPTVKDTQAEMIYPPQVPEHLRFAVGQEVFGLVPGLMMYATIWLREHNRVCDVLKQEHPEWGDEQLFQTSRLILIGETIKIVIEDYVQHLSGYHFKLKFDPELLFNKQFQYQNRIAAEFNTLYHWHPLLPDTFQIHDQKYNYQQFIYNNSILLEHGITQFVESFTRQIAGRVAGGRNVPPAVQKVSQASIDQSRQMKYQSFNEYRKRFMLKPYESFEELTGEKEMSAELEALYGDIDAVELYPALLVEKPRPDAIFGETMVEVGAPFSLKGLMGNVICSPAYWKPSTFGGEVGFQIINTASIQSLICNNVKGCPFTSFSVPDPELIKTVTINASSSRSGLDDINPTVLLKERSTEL
The experiment in a line: Inhibition of COX-2 (unknown origin).

For assay [7], the target named is T3, Transient receptor potential cation channel subfamily V member 1 (Rattus norvegicus, UniProt O35433). The experiment in a line: Inhibition of rat TRPV1 assessed as inhibition of capsaicin-induced increase in intracellular Ca2+ level. The assay is classed as cell-based.
T3 sequence (O35433 whole entry): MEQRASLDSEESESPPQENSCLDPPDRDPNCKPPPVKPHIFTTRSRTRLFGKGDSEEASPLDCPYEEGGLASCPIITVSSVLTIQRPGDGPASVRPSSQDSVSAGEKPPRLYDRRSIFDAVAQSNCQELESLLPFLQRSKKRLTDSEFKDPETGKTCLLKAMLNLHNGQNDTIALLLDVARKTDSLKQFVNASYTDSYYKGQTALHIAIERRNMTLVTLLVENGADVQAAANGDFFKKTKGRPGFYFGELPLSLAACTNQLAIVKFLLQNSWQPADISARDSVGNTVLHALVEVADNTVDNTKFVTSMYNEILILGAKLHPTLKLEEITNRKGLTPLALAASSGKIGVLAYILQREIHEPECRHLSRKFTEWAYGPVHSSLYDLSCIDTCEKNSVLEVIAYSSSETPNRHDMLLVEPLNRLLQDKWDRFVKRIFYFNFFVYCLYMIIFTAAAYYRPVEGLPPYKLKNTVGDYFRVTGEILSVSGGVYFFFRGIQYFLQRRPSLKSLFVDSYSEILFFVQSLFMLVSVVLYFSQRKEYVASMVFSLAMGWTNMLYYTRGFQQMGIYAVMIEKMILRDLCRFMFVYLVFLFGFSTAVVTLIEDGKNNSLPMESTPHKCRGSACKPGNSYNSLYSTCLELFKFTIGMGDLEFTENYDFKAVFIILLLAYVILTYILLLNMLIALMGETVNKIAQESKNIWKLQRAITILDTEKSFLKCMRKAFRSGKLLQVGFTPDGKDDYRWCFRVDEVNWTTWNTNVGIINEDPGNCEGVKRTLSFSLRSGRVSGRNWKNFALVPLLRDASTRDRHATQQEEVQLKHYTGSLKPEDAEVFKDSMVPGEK
Assay [8] has as its target T1, Transient receptor potential cation channel subfamily V member 1. Nature of the assay: Antagonist activity at human TRPV1 assessed as inhibition of pH-induced increase in intracellular Ca2+ level. Format: cell-based.
Assay [9] shares this target. The experiment in a line: Antagonist activity at human TRPV1 expressed in HEK293 cells assessed as inhibition of capsaicin-induced increase in intracellular Ca2+ level incubated for 2 mins by scintillation counter analysis. Format: cell-based.
Assay [10] shares this target. The experiment in a line: Antagonist activity at human TRPV1 expressed in HEK293 cells assessed as inhibition of NADA-induced increase in intracellular Ca2+ level incubated for 2 mins by scintillation counter analysis. Format: cell-based.
The target of assay [11] is T3, Transient receptor potential cation channel subfamily V member 1. The experiment in a line: Antagonist activity at rat TRPV1 expressed in CHO cells assessed as inhibition of pH-induced increase in intracellular Ca2+ level by fluorescence based analysis. The assay is classed as cell-based.
Assay [12] in a line: Antagonist activity at Xenopus oocytes TRPV1 assessed as inhibition of capsaicin-induced increase in intracellular Ca2+ level. Format: cell-based. As to conditions: Xenopus laevis.
For assay [13], the target named is T1, Transient receptor potential cation channel subfamily V member 1. Nature of the assay: Antagonist activity at capsaicin-induced human TRPV1 activation.
For assay [14] the target is unchanged. Nature of the assay: Antagonist activity at human TRPV1 assessed as inhibition of AITC-induced increase in intracellular Ca2+ level. Format: cell-based.
For assay [15] the target is unchanged. The experiment in a line: Antagonist activity at human TRPV1 expressed in HEK293 cells assessed as inhibition of capsaicin-induced increase in intracellular Ca2+ level by FLIPR-based Ca2+ assay. Format: cell-based.
Assay [16] has as its target T3, Transient receptor potential cation channel subfamily V member 1. The experiment in a line: Antagonist activity at rat TRPV1 assessed as inhibition of pH-induced increase in intracellular Ca2+ level. The assay is classed as cell-based.

T1 sequence (Q8NER1 whole entry): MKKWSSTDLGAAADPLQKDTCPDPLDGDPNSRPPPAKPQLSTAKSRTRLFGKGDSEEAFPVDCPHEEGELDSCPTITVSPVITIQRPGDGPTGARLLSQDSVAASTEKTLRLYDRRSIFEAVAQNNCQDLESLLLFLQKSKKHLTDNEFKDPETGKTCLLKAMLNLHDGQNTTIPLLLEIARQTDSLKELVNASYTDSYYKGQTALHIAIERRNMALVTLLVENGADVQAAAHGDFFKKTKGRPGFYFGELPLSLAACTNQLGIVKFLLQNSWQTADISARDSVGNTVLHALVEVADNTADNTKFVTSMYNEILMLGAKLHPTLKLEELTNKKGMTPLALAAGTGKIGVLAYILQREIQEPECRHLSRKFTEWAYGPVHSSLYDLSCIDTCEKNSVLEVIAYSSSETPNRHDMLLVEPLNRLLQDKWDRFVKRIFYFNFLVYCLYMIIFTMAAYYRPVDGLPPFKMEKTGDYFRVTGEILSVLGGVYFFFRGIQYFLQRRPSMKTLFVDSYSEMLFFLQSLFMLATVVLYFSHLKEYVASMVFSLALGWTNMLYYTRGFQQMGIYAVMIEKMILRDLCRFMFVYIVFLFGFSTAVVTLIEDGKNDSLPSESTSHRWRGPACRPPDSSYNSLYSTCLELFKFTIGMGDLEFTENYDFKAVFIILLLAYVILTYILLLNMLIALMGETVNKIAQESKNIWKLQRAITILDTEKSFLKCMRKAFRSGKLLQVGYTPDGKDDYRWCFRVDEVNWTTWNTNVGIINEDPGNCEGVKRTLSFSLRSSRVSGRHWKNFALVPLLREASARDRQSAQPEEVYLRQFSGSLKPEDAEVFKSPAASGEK

As for `C=Cc1cc([C@@H](C)NC(=O)/C(C)=C/c2ccc(C(C)(C)C)cc2)ccc1NS(C)(=O)=O`, in assay [1], the IC50 is 22 nM.

As for `CCCCCCCCCCCC(=O)OCC(=O)NCc1cc(OC)c(O)cc1I`, the Activity in [2] is reported as less than 1%. For the molecule `CN(C)C1(Cc2ccccc2)CCN(c2cc(C(F)(F)F)ccc2CNC(=O)Nc2cccc3ncccc23)CC1`, the Ki in assay [3] came out at 32 nM. Also, the IC50 in [4] is 10.8 nM. For the molecule `CC1CCN(c2nc(C(F)(F)F)ccc2CNC(=O)Cc2c(F)cccc2Cl)CC1`, the IC50 in [5] turned out to be 2.6 nM. `COc1cc(C(=O)NS(=O)(=O)c2ccc(-n3nc(C(F)(F)F)cc3-c3ccc(C)cc3)cc2)ccc1O` displayed an IC50 in assay [6] of 11 nM. `COc1cc(/C=C/C(=O)NS(=O)(=O)c2ccc(-n3nc(C(F)(F)F)cc3-c3ccc(C)cc3)cc2)ccc1O`: the IC50 is 140 nM in assay [7] and 23 nM in [6]. With `O=C(Nc1ccc(Br)cc1)[C@@H]1CCCN1C(=O)Nc1cccc2cnccc12`, the values for the IC50 in assay [5] and in [8] were 84 nM and 313 nM, respectively. As to `CCC1(CC)CC(NC(=O)Nc2cccc3c(C)nccc23)c2cc(F)ccc2O1` (stereo unspecified), the IC50 in [9] worked out at 19 nM; in assay [10] it was 7 nM.

On to `O=C1/C(=N\Nc2ccccc2)C(C(F)(F)C(F)(F)F)=NN1c1ccccc1`, for which, in assay [11], the IC50 was 140 nM. For the molecule `C[C@H]1O[C@H](O[C@H]2[C@H](Oc3cc(O)c4c(c3)O[C@H](c3ccc(O)cc3)CC4=O)O[C@H](CO)[C@@H](O)[C@@H]2O)[C@H](O)[C@@H](O)[C@H]1O`, the IC50 in [12] turned out to be 33300 nM. With `Cc1cc(C)nc(NC(=O)N2CCN(Cc3ccccc3N3CCCC3)CC2)c1`, the IC50 in [13] was determined as 9.8 nM. As to `O=C(C(c1ccccc1)N1C(=O)CCC1=O)N1CCN(c2cccc(C(F)(F)F)c2)CC1` (stereo unspecified), in [5], the IC50 amounted to 45000 nM. Still for that read-out and setting: to `COc1cc(CNC(=O)COC(=O)/C=C(\C)CC=C(C)C)c(I)cc1O` belongs 90 nM. In the case of `O=C1C[C@@H](c2ccc(O[C@@H]3O[C@H](CO)[C@@H](O)[C@H](O)[C@H]3O)cc2)Oc2cc(O)ccc21` [LIQUIRITIN], the IC50 in assay [5] came out at 9800 nM; in assay [14], 16200 nM. In the case of `O=C(Nc1ccccc1Br)N[C@@H]1CCN(c2ccc(C(F)(F)F)cn2)C1` [SB-705498], the values for the IC50 in assay [15] and in assay [16] were 3 nM and 6 nM, respectively.
